Where a name gives a salt, the structure may show the parent alone.
Columns and labels:
Type in all cases: physicochemical
ICH storage stability = assay: ICH storage stability
From the text: The stability protocol followed ICH guidelines. […] Following storage, these samples were removed from the stability cabinet and analysed for appearance, water content by Karl Fischer titration (KF), and purity. No change in water content or chemical purity by HPLC was observed over six months. […]

[1] = Powder density and flowability
Procedure: The compound was allowed to settle prior to weighing with approximately 40 mL volume occupied and bulk density calculated. […] The tap density was then calculated.

[2] = Gravimetric solubility in water; conditions: thermodynamic from solid, gravimetric solubility protocol
Procedure: The solubility in water of the salts was measured using a gravimetric solubility protocol. 1 ml of water was charged into crystallisation tubes. The solid was weighed into a tared glass vial, added in portions to the solutions and the vial weighed after each addition until a hazy solution was observed. The amount in mg was then calculated to give the solubility in mg/ml.

[3] = Gravimetric vapour sorption (GVS)
Procedure: The sample was maintained at a constant temperature (25° C.) by the instrument controls. The humidity was controlled by mixing streams of dry and wet nitrogen, with a total flow of 250 ml·min-1. The instrument was verified for relative humidity content by measuring three calibrated Rotronic salt solutions (10-50-88%). The weight change of the sample was monitored as a function of humidity by a microbalance (accuracy+/−0.005 mg). A defined amount of sample was placed in a tared mesh stainless steel basket under ambient conditions. A full experimental cycle typically consisted of three scans (sorption, desorption and sorption) at a constant temperature (25° C.) and 10% RH intervals over a 0-90% range (60 minutes for each humidity level).

[4] = Solubility in (2-hydroxypropyl)-β-cyclodextrin 20% w/v in water; conditions: continuous stirring, gentle warming to 40° C.
[5] = calculated from bulk and tap density

Appearance (ICH storage stability; T = 0) | Chemical purity by HPLC (ICH storage stability; T = 0) [%] | Water content by KF (ICH storage stability; T = 0) [% w/w] | Appearance (ICH storage stability; T = 6 month, 25° C./60% RH) | Chemical purity by HPLC (ICH storage stability; T = 6 month, 25° C./60% RH) [%] | Water content by KF (ICH storage stability; T = 6 month, 25° C./60% RH) [% w/w] | Appearance (ICH storage stability; T = 6 month, 40° C./75% RH) | Chemical purity by HPLC (ICH storage stability; T = 6 month, 40° C./75% RH) [%] | Water content by KF (ICH storage stability; T = 6 month, 40° C./75% RH) [% w/w] | change in water content or chemical purity by HPLC (ICH storage stability; over six months, 25° C./60% RH and 40° C./75% RH) | powder bulk density [1] [g/mL] | tap density [1] [g/mL] | Carr's index [1, 5] [%] | Hausner ratio [1, 5] | flowability ([1]; descriptor from Carr's index and Hausner ratio) | solubility [2] [µg/mL] | moisture content before the first desorption ([3]; GVS, 25° C.) | moisture taken up between 80 and 90% RH ([3]; GVS, 25° C., 80-90% RH) | concentration achieved in solution [4] [mg/mL] | moisture uptake (surface moisture) ([3]; at 90% RH) [%] | Compound
A white solid. | 99.60 | 0.2 | A white solid. | 99.60 | 0.2 | A white solid. | 99.60 | 0.2 | No change | 0.55 | ~0.659 | 16.5 | 1.19 | fair | 7500 | ca. 0.3% | ca. 0.8% | > 100 | – | CN(C)CCNC(=O)c1ccc(-c2ccc(-c3ccc(Cl)cc3)n2-c2ccccc2C(F)(F)F)cc1 (single isomer, unassigned) [Atropisomer A-2 Tartrate Pattern B salt]
– | – | – | – | – | – | – | – | – | – | – | – | – | – | – | 6700 | – | – | – | – | CN(C)CCNC(=O)c1ccc(-c2ccc(-c3ccc(Cl)cc3)n2-c2ccccc2C(F)(F)F)cc1 (single isomer, unassigned) [Atropisomer A-2 Tartrate Pattern A salt]
– | – | – | – | – | – | – | – | – | – | – | – | – | – | – | – | – | – | – | < 1 | CN(C)CCNC(=O)c1ccc(-c2ccc(-c3ccc(Cl)cc3)n2-c2ccccc2C(F)(F)F)cc1 [(+)-L-tartaric acid salt, (R)-4-[5-(4-chlorophenyl)-1-[2-(trifluoromethyl)-phenyl]pyrrol-2-yl]-N-[2-(dimethylamino)-ethyl]benzamide (+)-L-tartaric acid salt]
